The values below come from patent publication US9266900B2, “Additives for improved isohexide products” (ARCHER DANIELS MIDLAND COMPANY, priority 2012, dated 2016).

Several values for one entry are separate records, joined by “and”; a condition that tells them apart may be missing. Equal values may be shown once. A value given as a limit tells only on which side of the number the result lay.

Data set [1] in a line: Distillation of crude isosorbide mixture with added antioxidant: co-distillation and initial distillate color. Format: physicochemical. To be noted: for antioxidant recovered in the distillate, yield: co-distilled with isosorbide; for initial APHA color of the neat distillate: neat distillate after distillation, ASTM D1209; for additive distilled with the isosorbide / recovered in the distillate by UPLC analysis: short path distillation, oil bath 185 to 195 degrees Celsius, less than 2 torr. As for the experimental part: A 500 mL boiling flask equipped with a Teflon stir bar was charged with 100 g of ion-exchanged (strong acid cation/strong base anion-exchanged), dewatered, molten isosorbide. While stirring, 40.02 mg of 2,6-di-tert-butyl-4-methoxyphenol (DTMP), previously dissolved in 2 mL of absolute ethanol, was added via pipette, indicating the DTMP concentration as 400 ppm in the matrix. The flask was then outfitted with a still head, condenser, and receiver, placed under a vacuum of <2 torr, and placed in a digitally controlled oil bath. The bath was gradually heated to 190 degrees Celsius while maintaining a vacuum. At a bath temperature of approximately 155 degrees, isosorbide began to distill (vapor temperature of 150 deg C.). Continuous distillation occurred for approximately 30 minutes. 45.6 grams of clear, colorless isosorbide was collected, whose APHA color was measured as 6. Quantitative analysis by UPLC determined the concentration of DTMP in the distilled isosorbide to be 503 ppm.
In this as in subsequent examples, a quantity of an antioxidant under evaluation was dissolved in 1-2 mL of absolute ethanol and then added via pipette to a crude isosorbide mixture which had been treated previously to remove ionic species therefrom. Amounts were set so that the concentration of the antioxidant in the crude isosorbide mixture was in the range of from 250 to 900 ppm by weight. The stabilized crude isosorbide mixtures were then distilled in turn in a short path, jacketed distillation apparatus consisting of a 250 cc 3 neck boiling flask containing a PTFE magnetic stir bar in which one neck was fitted with a rubber septum, a thermocouple extended into the mixture being distilled from a central neck, and the third neck was equipped with the short path head leading to a boiling flask receiver maintained at 80 degrees Celsius. The boiling flask was immersed in an oil bath maintained at from 185 to 195 degrees Celsius, and distillation occurred under a vacuum pressure of less than 2 torr.

Data set [2] can be described thus: Thermal aging of neat distillate in 85 deg C. oven under air up to 28 days. In kind it is physicochemical. To be noted: for color stability criteria after accelerated aging: 85 degrees Celsius, 4 weeks, APHA less than 200 neat distillate and less than 250 for 85% solution; for formic acid after 28 days / APHA color after 28 days / furfural after 28 days: 85 deg C.; for APHA color after 28 days: air, measured as a 20% solution; for APHA color, time zero: UV/vis. As for the experimental part:
The DTMP-stabilized distillate was further tested for color storage stability by thermal aging over a more extended period of time, in particular, by preparing typically five 10 mL headspace vials of each of the neat distillate and an 85% solution of the distillate in water in 0.5 gram sample portions. One vial of the set of five for the neat distillate or the 85% solution was set aside as the “time zero” data point. The time zero sample was diluted with 2 mL of water and analyzed.
For the neat distillate, the APHA color of the time zero sample was less than 20 by UV/vis. All other decomposition products were less than 5 ppm. The four other vials of the neat distillate were then placed in an 85 deg C. oven trader air, and one vial was removed at 7 days, another at 14 days, another at 21 days, and the last of the four at 28 days. Once removed from the oven, each sample was allowed to cool to room temperature and diluted with 2 mL of water. The sample was then analyzed by UV/vis, UPLC, LC-MS, and GC. After 28 days, APHA color, measured as a 20% solution, was only 28. Furfural and formic acid were measured at 18 ppm and 39 ppm, respectively.
The BBTC-stabilized distillate was further tested for color storage stability by thermal aging over a more extended period of time, in particular, by preparing typically five 10 mL headspace vials of each of the neat distillate and an 85% solution of the distillate in water in 0.5 gram sample portions. One vial of the set of five for the neat distillate or the 85% solution was set aside as the “time zero” data point. The time zero sample was diluted with 2 mL of water and analyzed.
For the neat distillate, the APHA color of the time zero sample was less than 1 by UV/vis. Formic acid concentration in the time zero sample was less than 5 ppm, while furfural concentration was less than 1 ppm. The four other vials of the neat distillate were then placed in an 85 deg C. oven under air, and one vial was removed at 7 days, another at 14 days, another at 21 days, and the last of the four at 28 days. Once removed from the oven, each sample was allowed to cool to room temperature and diluted with 2 mL of water. Each sample was then analyzed by UV/vis, UPLC, LC-MS, and GC. After 28 days, APHA color, measured as a 20% solution, was 191. Furfural and formic acid were measured at 298 ppm and 6,102 ppm, respectively.

Data set [3] in a line: Heating of isosorbide distillate in 200° C. oil bath for 1 hr under air, APHA color by UV/vis. Format: physicochemical. To be noted: 0.5 g diluted with 2 mL water. On the procedure:
About, an 11 gram sample of the isosorbide distillate was added to a glass tube and capped with a septum. The glass tube was then submerged in a 200° C. oil bath for 1 hr under air. Approximately 0.5 g of the heated distillate sample was subsequently diluted with 2 mL of water and analyzed by UV/vis to obtain an APHA color value. An APHA color of approximately 250 was observed, compared to an APHA value for a distillate sample absent the DTMP additive that was offscale (>500).
About an 11 gram sample of the isosorbide distillate was added to a glass tube and capped with a septum. The glass tube was then submerged in a 200° C. oil bath for 1 hr under air.

Data set [4] in a line: Thermal aging of 85% solution of the distillate in water at 85 deg C. up to 28 days. To be noted: for formic acid concentration, final sample / APHA color, day 28 / formic acid concentration, initially / APHA color, time zero / furfural concentration, final sample / furfural concentration, initially: 85% solution; for formic acid concentration, final sample / APHA color, day 28 / furfural concentration, final sample: 85 deg C.; for formic acid concentration, final sample / furfural concentration, final sample: 28 days; for APHA color, day 28: day 28, final diluted (20%); for formic acid concentration, initially / furfural concentration, initially: initial; for APHA color, time zero: diluted (20%). Format: physicochemical.

A short description of data set [5]: Solubility and retention of stabilizer in isosorbide product. As to conditions: 85% solution isosorbide product.
For data set [6] the following is noted: stable = formic acid less than 5 ppm and monoanhydrohexoses less than 50 ppm, dry weight basis; cited from earlier work.

For the compound `COc1cccc(OC)c1O` [DMP, 2,6-dimethoxyphenol], in data set [1], the “antioxidant recovered in the distillate, yield” value (“antioxidant recovered” for short) is given as 64% and the “initial APHA color of the neat distillate” value (“initial APHA color” below) is on record as 18.7. Moreover, the “color stability criteria after accelerated aging” value (“color stability criteria” below) in data set [2] was “met the criterion for either the neat distillate or the 85% solution product hut not for both”.

Take `COc1ccc(O)c(C(C)(C)C)c1` [BHA, butylated hydroxyanisole]: in data set [1], the “antioxidant recovered” value was 63%; the “initial APHA color” value is 14.1 and 14; the “additive distilled with the isosorbide / recovered in the distillate by UPLC analysis” value is given as “About 63%”. Moreover, in data set [3], the “APHA color after heating” value was determined as 222. In addition, the “color stability criteria” value in data set [2] was “criteria were met”. In data set [2] (neat distillate), the “formic acid after 28 days” value was found to be 21 ppm and the “APHA color after 28 days” value amounted to 40. In addition, in data set [2] (neat distillate, time zero), the “formic acid concentration, time zero” value is on record as “less than 5 ppm” and the “APHA color, time zero” value is “less than 15”. For the same compound, in data set [4], the “formic acid concentration, final sample” value amounted to 44 ppm; the “APHA color, day 28” value turned out to be 30; the “formic acid concentration, initially” value is listed as “less than 5 ppm”; the “APHA color, time zero” value is given as “less than 1”. Besides, in data set [5], the “solubility in 85% solution product” value is on record as “continued good solubility”.

In the case of `C1COCCN1` [morpholine], the “stability of composition according to the '477 patent” value (“stability of composition according” below) in data set [6] is reported as “stable”.

With `O=B[O-].[Na+]` [NaBO2], in data set [6], the “stability of composition according” value is recorded as “stable”.

For the compound `COc1cc(C(C)(C)C)c(O)c(C(C)(C)C)c1` [DTMP, 2,6-di-tert-butyl-4-methoxyphenol], in data set [1] (400 ppm in the matrix before distillation), the “concentration of additive in the distilled isosorbide by UPLC” value was determined as 503 ppm. The “antioxidant recovered” value in data set [1] is given as 50%. In addition, the “APHA color after heating” value in data set [3] is given as “approximately 250”. The “color stability criteria” value in data set [2] is reported as “met the criterion for either the neat distillate or the 85% solution product hut not for both”. Further, in data set [2] (neat distillate), the “formic acid after 28 days” value was determined as 39 ppm, the “furfural after 28 days” value was determined as 18 ppm and the “APHA color after 28 days” value was 28. In addition, in data set [2] (neat distillate, time zero), the “all other decomposition products, time zero” value is reported as “less than 5 ppm” and the “APHA color, time zero” value is “less than 20”. Besides, the “5-hydroxymethylfurfural (HMF) formation” value in data set [2] (neat stabilized sample, aged) is less than 5 ppm. In addition, in data set [4], the “formic acid concentration, final sample” value is recorded as 250 ppm; the “furfural concentration, final sample” value worked out at 88 ppm; the “APHA color, day 28” value was 150; the “furfural concentration, initially” value is listed as “less than 5 ppm”. In data set [4], the “APHA color, time zero” value stood at 0. For the same compound, the “5-hydroxymethylfurfural (HMF) formation” value in data set [4] (85% stabilized sample, aged) was less than 5 ppm.

As for `O=P([O-])([O-])O.[Na+].[Na+]` [Na2HPO4], in data set [6], the “stability of composition according” value was “stable”.

Turning to `[Na+].[OH-]` [NaOH], the “stability of composition according” value in data set [6] is given as “stable”.

`CC(C)(C)c1cc(O)ccc1O` [TBHQ, tert-butylhydroquinone]: the “additive distilled with the isosorbide / recovered in the distillate by UPLC analysis” value in data set [1] is given as “Virtually a quantitative recovery”. In addition, in data set [2] (neat distillate), the “formic acid after 28 days” value worked out at 3458 ppm, the “furfural after 28 days” value is 182 ppm and the “APHA color after 28 days” value worked out at 233. In data set [2] (neat distillate, time zero), the “formic acid concentration, time zero” value is “less than 5 ppm”; the “furfural concentration, time zero” value is “less than 1 ppm”; the “APHA color, time zero” value is on record as 110. Further, in data set [4], the “formic acid concentration, final sample” value amounted to 770 ppm; the “furfural concentration, final sample” value stood at 257 ppm; the “APHA color, day 28” value is reported as “more than 500”; the “formic acid concentration, initially” value is “less than 5 ppm”. Further, in data set [4], the “furfural concentration, initially” value is given as “less than 1 ppm” and the “APHA color, time zero” value was “less than 1”.

Consider `O=C1O[C@H]([C@@H](O)CO)C(O)=C1O` [vitamin C], for which the “stability of composition according” value in data set [6] was “stable”.

With `Cc1cc(C(C)(C)C)c(O)c(C(C)(C)C)c1` [BHT], the “stability of composition according” value in data set [6] is “stable”.

As for `CCCC(c1cc(C(C)(C)C)c(O)cc1C)c1cc(C(C)(C)C)c(O)cc1C` [BBTC, 4,4′-butylidenebis(6-t-butyl-m-cresol)], in data set [1], the “initial APHA color” value is 10 and the “additive distilled with the isosorbide / recovered in the distillate by UPLC analysis” value is reported as “About 83%”. The “APHA color after heating” value in data set [3] is on record as “offscale”. Moreover, in data set [2] (neat distillate), the “formic acid after 28 days” value is 6,102 ppm, the “furfural after 28 days” value is 298 ppm and the “APHA color after 28 days” value is given as 191. In addition, in data set [2] (neat distillate, time zero), the “formic acid concentration, time zero” value was “less than 5 ppm”; the “furfural concentration, time zero” value is “less than 1 ppm”; the “APHA color, time zero” value was “less than 1”. In data set [4], the “formic acid concentration, final sample” value is on record as 4264 ppm; the “furfural concentration, final sample” value is reported as 298 ppm; the “APHA color, day 28” value was “more than 500”; the “formic acid concentration, initially” value is reported as “less than 5 ppm”. For the same compound, in data set [4], the “furfural concentration, initially” value is reported as “less than 1 ppm” and the “APHA color, time zero” value is reported as “less than 1”.

Consider `Cc1c(C)c2c(c(C)c1O)CCC(C)(C(=O)O)O2` (stereo not shown) [Trolox™, 6-hydroxy-2,5,7,8-tetramethylchromane-2-carboxylic acid], for which, in data set [1], the “initial APHA color” value came to 15 and the “additive distilled with the isosorbide / recovered in the distillate by UPLC analysis” value was “About 26%”. In addition, in data set [2] (neat distillate), the “formic acid after 28 days” value turned out to be 3291 ppm, the “furfural after 28 days” value is listed as 460 ppm and the “APHA color after 28 days” value is “over 500”. In data set [2] (neat distillate, time zero), the “formic acid concentration, time zero” value is reported as “less than 5 ppm”; the “furfural concentration, time zero” value was “less than 1 ppm”; the “APHA color, time zero” value was determined as 15. The “rate of color formation compared to control vials containing distillate alone” value in data set [2] (thermal aging, stabilized samples vs control) is given as “developed color more quickly”. Besides, in data set [4], the “formic acid concentration, final sample” value stood at 3360 ppm; the “furfural concentration, final sample” value turned out to be 512 ppm; the “APHA color, day 28” value is “more than 500”; the “formic acid concentration, initially” value is recorded as “less than 5 ppm”. For the same compound, in data set [4], the “furfural concentration, initially” value was “less than 1 ppm” and the “APHA color, time zero” value is 5.
